This passage reports IC50 and K obs / 1 results from ChEMBL document CHEMBL1124910, “Inhibition of human leukocyte elastase. 1. Inhibition by C-7-substituted cephalosporin tert-butyl esters” (J Med Chem, 1990).

In assay [1] the target is T1, Neutrophil elastase (Homo sapiens, UniProt P08246).
T1 sequence (P08246 whole entry): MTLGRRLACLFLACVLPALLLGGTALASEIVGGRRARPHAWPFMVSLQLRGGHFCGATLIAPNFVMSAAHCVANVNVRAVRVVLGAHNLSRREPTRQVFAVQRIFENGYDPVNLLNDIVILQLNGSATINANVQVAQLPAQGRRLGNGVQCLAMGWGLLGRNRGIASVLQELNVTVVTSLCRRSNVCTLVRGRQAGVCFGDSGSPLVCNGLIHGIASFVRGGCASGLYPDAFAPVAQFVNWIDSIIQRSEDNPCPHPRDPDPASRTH
Nature of the assay: Inhibitory concentration which is required to cause 50% inhibition of human leukocyte elastase (HLE) enzyme; NVT indicates nonvalid test.

For assay [2], the target named is T1, Neutrophil elastase. The assay can be described thus: Inhibitory concentration which is required to cause 50% inhibition of human leukocyte elastase (HLE) enzyme.
For assay [3], the target named is T2, Neutrophil elastase (Homo sapiens) (UniProt P08246).
T2 sequence (whole entry): T1 sequence (P08246 whole entry)
Nature of the assay: Second-order rate constant (Kobs/[I]) for inactivation was determined.

In assay [4] the target is T3, Pancreatic elastase (Sus scrofa, UniProt P08419+P00772). The assay can be described thus: Inhibitory concentration which is required to cause 50% inhibition of porcine pancreatic elastase (PPE). Type of assay: protein assay.
Assay [5] has as its target T4, Serine protease 1 (Bos taurus, UniProt P00760).
T4 sequence (P00760 whole entry): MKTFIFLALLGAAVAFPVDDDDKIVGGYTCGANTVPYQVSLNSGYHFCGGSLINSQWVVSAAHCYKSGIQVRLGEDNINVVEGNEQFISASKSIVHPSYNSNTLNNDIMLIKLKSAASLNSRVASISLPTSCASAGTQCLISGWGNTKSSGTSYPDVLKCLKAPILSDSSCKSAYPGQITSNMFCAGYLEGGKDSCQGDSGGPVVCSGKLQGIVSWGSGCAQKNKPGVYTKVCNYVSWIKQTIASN
Nature of the assay: Inhibitory concentration which is required to cause 50% inhibition of bovine trypsin (Trp).

In assay [6] the target is T2, Neutrophil elastase (Homo sapiens).
Description: Second-order rate constant (Kobs/[I]) for inactivation of Human Leukocyte Elastase was determined
In assay [7] the target is T4, Serine protease 1. The assay can be described thus: Inhibitory concentration which is required to cause 50% inhibition of Trypsin.
For assay [8], the target named is T5, Chymotrypsinogen A (Bos taurus, UniProt P00766). Nature of the assay: Inhibitory concentration which is required to cause 50% inhibition of alpha-chymotrypsin enzyme.
Assay [9] deals with T3, Pancreatic elastase. Nature of the assay: Inhibitory concentration which is required to cause 50% inhibition of Porcine pancreatic elastase (PPE) enzyme. Type of assay: protein assay.
Assay [10] has as its target T5, Chymotrypsinogen A. Nature of the assay: Inhibitory concentration which is required to cause 50% inhibition of bovine alpha-chymotrypsin (ChT).

On to `CC(=O)OCC1=C(C(=O)OC(C)(C)C)N2C(=O)[C@H](OS(=O)(=O)c3ccc(C)cc3)[C@H]2SC1`, for which the IC50 result at Neutrophil elastase [1] is recorded as “Non valid test”.
For `CCC(C)O[C@H]1C(=O)N2C(C(=O)OC(C)(C)C)=C(COC(C)=O)CS(=O)(=O)[C@H]12` (some centres undefined), on Neutrophil elastase [2], it took 28 µM to reach half-maximal inhibition (IC50). This counts as double-digit micromolar.
The same measure, in the same setting: in the case of `CC(=O)OCC1=C(C(=O)OC(C)(C)C)N2C(=O)[C@@H](NC(=O)C(F)(F)F)[C@H]2S(=O)(=O)C1` it was over 40 µM.
In assay [3], `CC(=O)OCC1=C(C(=O)OC(C)(C)C)N2C(=O)[C@H](OC=O)[C@H]2S(=O)(=O)C1` returned a K obs / 1 of 59000 M⁻¹ s⁻¹. Also, the values for the IC50 at Neutrophil elastase [2], at Pancreatic elastase [4] and at Serine protease 1 [5] were 0.3 µM, 0.4 µM and over 40 µM, respectively.
As to `CC(=O)OCC1=C(C(=O)OC(C)(C)C)N2C(=O)[C@H](NC=O)[C@H]2S(=O)(=O)C1`, the K obs / 1 in assay [3] amounted to 1200 M⁻¹ s⁻¹. The compound further gave an IC50 at Neutrophil elastase [2] of 4 µM.
On to `CC(=O)OCC1=C(C(=O)OC(C)(C)C)N2C(=O)[C@H](OC(=O)c3ccccc3)[C@H]2S(=O)(=O)C1`, for which the IC50 against Neutrophil elastase [2] was over 40 µM.
`CC(=O)OCC1=C(C(=O)OC(C)(C)C)N2C(=O)[C@H](OCc3ccccc3)[C@H]2S(=O)(=O)C1` gave an IC50 against Neutrophil elastase [2] of over 10 µM.
`CC(=O)OCC1=C(C(=O)OC(C)(C)C)N2C(=O)[C@H](NC(=O)C(F)(F)F)[C@H]2S(=O)(=O)C1` gave an IC50 against Neutrophil elastase [2] of 2 µM.
The same measure, in the same setting: to `CCCC[C@H]1C(=O)N2C(C(=O)OC(C)(C)C)=C(COC(C)=O)CS(=O)(=O)[C@H]12` belongs 40 µM.
For the compound `CO[C@H]1C(=O)N2C(C(=O)OC(C)(C)C)=C(COC(C)=O)C[S@+]([O-])[C@H]12`, in [3], the K obs / 1 came out at 500 M⁻¹ s⁻¹. Moreover, the midpoint of inhibition against Neutrophil elastase [2], the IC50, lay at 4 µM.
Consider `CCC(=O)O[C@H]1C(=O)N2C(C(=O)OC(C)(C)C)=C(COC(C)=O)CS(=O)(=O)[C@H]12`, for which the IC50 at Neutrophil elastase [2] came out at 10 µM. For the same compound, the K obs / 1 in assay [6] was found to be 80 M⁻¹ s⁻¹.
The corresponding values for `CO[C@H]1C(=O)N2C(C(=O)OC(C)(C)C)=C(COC(C)=O)CS(=O)(=O)[C@H]12` are 1 µM and 19000 M⁻¹ s⁻¹.
Regarding `CC(=O)OCC1=C(C(=O)OC(C)(C)C)N2C(=O)[C@H](OC(=O)Cc3ccccc3)[C@H]2S(=O)(=O)C1`, the IC50 against Neutrophil elastase [2] is 10 µM; at Serine protease 1 [7], over 40 µM; at Chymotrypsinogen A [8] it was 4 µM; at Pancreatic elastase [9] it was 20 µM.
`CCO[C@H]1C(=O)N2C(C(=O)OC(C)(C)C)=C(COC(C)=O)C[S+]([O-])[C@H]12` (stereo in doubt; 7b) showed an IC50 against Neutrophil elastase [2] of over 40 µM.
The same measure, in the same setting: in the case of `CO[C@@H]1C(=O)N2C(C(=O)OC(C)(C)C)=C(COC(C)=O)CS(=O)(=O)[C@H]12` it was over 40 µM; in that of `CCCO[C@H]1C(=O)N2C(C(=O)OC(C)(C)C)=C(COC(C)=O)CS[C@H]12`, over 40 µM.
On the same count and under the same terms, to `CC(=O)OCC1=C(C(=O)OC(C)(C)C)N2C(=O)C[C@H]2S(=O)(=O)C1` belongs over 40 µM; to `CO[C@H]1C(=O)N2C(C(=O)OC(C)(C)C)=C(COC(C)=O)CS[C@H]12`, 10 µM.
Take `O=C(O)[C@H]1/C(=C/CO)O[C@@H]2CC(=O)N21` [CLAVULANIC ACID]: the IC50 against Neutrophil elastase [2] was under 40 µM.
On the same count and under the same terms, in the case of `CC(=O)OCC1=C(C(=O)OC(C)(C)C)N2C(=O)[C@H](OCCc3ccccc3)[C@H]2S(=O)(=O)C1` it was 5 µM; in that of `CC(=O)OCC1=C(C(=O)OC(C)(C)C)N2C(=O)[C@@H](NC(=O)Cc3cccs3)[C@H]2S(=O)(=O)C1`, over 40 µM; in that of `CCCCO[C@H]1C(=O)N2C(C(=O)OC(C)(C)C)=C(COC(C)=O)CS(=O)(=O)[C@H]12`, over 40 µM.
Still for that read-out and setting: in the case of `O=C(OCc1ccccc1)[C@H]1/C(=C/CO)O[C@@H]2CC(=O)N21` it was 4 µM; in that of `CC(=O)OCC1=C(C(=O)OC(C)(C)C)N2C(=O)[C@H](F)[C@H]2SC1`, 20 µM; in that of `CCC(CC)O[C@H]1C(=O)N2C(C(=O)OC(C)(C)C)=C(COC(C)=O)CS(=O)(=O)[C@H]12`, over 40 µM.
`CCC(=O)O[C@H]1C(=O)N2C(C(=O)OC(C)(C)C)=C(COC(C)=O)CS[C@H]12` gave an IC50 on Neutrophil elastase [2] of 36 µM.
As for `CC(=O)OCC1=C(C(=O)OC(C)(C)C)N2C(=O)[C@H](Cl)[C@H]2S(=O)(=O)C1`, at Neutrophil elastase [2], the IC50 is 0.04 µM. For the same compound, the K obs / 1 in assay [6] was determined as 161000 M⁻¹ s⁻¹.
For the compound `CC(=O)OCC1=C(C(=O)OC(C)(C)C)N2C(=O)[C@H](OC(C)=O)[C@H]2S(=O)(=O)C1`, the IC50 was 6 µM against Neutrophil elastase [2], 2 µM against Pancreatic elastase [4], over 40 µM on Serine protease 1 [7] and over 40 µM against Chymotrypsinogen A [10]. The same compound came in with a K obs / 1 in assay [6] of 950 M⁻¹ s⁻¹.
Compound `CO[C@H]1C(=O)N2C(C(=O)OC(C)(C)C)=C(COC(C)=O)C[S@@+]([O-])[C@H]12` showed an IC50 at Neutrophil elastase [2] of over 40 µM.
Still for that read-out and setting: in the case of `CCC(C)O[C@H]1C(=O)N2C(C(=O)OC(C)(C)C)=C(COC(C)=O)CS[C@H]12` (some centres undefined) it was over 40 µM; in that of `CC(=O)OCC1=C(C(=O)OC(C)(C)C)N2C(=O)[C@H](OC(=O)COc3ccccc3)[C@H]2S(=O)(=O)C1`, 6 µM.
Compound `CNC(=O)O[C@H]1C(=O)N2C(C(=O)OC(C)(C)C)=C(COC(C)=O)CS(=O)(=O)[C@H]12` returned an IC50 on Neutrophil elastase [2] of 1 µM. Also, the K obs / 1 in assay [6] was determined as 180 M⁻¹ s⁻¹.
The corresponding values for `CC(=O)OCC1=C(C(=O)OC(C)(C)C)N2C(=O)[C@H](Oc3ccccc3)[C@H]2S(=O)(=O)C1` are 1 µM and 720 M⁻¹ s⁻¹.
On to `CC(=O)OCC1=C(C(=O)OC(C)(C)C)N2C(=O)[C@H](NC(=O)Cc3cccs3)[C@H]2S(=O)(=O)C1`, for which the IC50 on Neutrophil elastase [2] was over 40 µM.
On the same count and under the same terms, in the case of `CC(=O)OCC1=C(C(=O)OC(C)(C)C)N2C(=O)[C@H](Cl)[C@H]2SC1` it was 2 µM; in that of `CCO[C@H]1C(=O)N2C(C(=O)OC(C)(C)C)=C(COC(C)=O)C[S+]([O-])[C@H]12` (stereo in doubt; 6b), 40 µM.
`COC(=O)N[C@H]1C(=O)N2C(C(=O)OC(C)(C)C)=C(COC(C)=O)CS(=O)(=O)[C@H]12`: the K obs / 1 in assay [3] is 1600 M⁻¹ s⁻¹. Further, at Neutrophil elastase [2], the IC50 was determined as 4 µM.
On Neutrophil elastase [2], `CCCCO[C@H]1C(=O)N2C(C(=O)OC(C)(C)C)=C(COC(C)=O)CS[C@H]12` registered an IC50 of over 40 µM.
The same measure, in the same setting: in the case of `CCO[C@H]1C(=O)N2C(C(=O)OC(C)(C)C)=C(COC(C)=O)CS[C@H]12` it was over 40 µM; in that of `CC(=O)OCC1=C(C(=O)OC(C)(C)C)N2C(=O)[C@@H](N)[C@H]2SC1`, over 40 µM; in that of `CC(=O)OCC1=C(C(=O)OC(C)(C)C)N2C(=O)[C@H](F)[C@H]2S(=O)(=O)C1`, 0.06 µM.
